Test results as given in ChEMBL document CHEMBL5465560, “Selectivity Literature for EUbOPEN Chemogenomic Library” (2024).

Tests used:
[1] = molecular target: Hepatocyte growth factor receptor (Homo sapiens, UniProt P08581); test: Selectivity interaction (Millipore kinase profiler) EUB0000124b MET; conditions: at 10 µM
[2] = molecular target: T1, Beta-adrenergic receptor kinase 1 (Homo sapiens) (UniProt P25098); test: Selectivity interaction (Kinase panel (Invitrogen)) EUB0000639a ADRBK1; conditions: at 200 nM
T1 sequence (whole entry): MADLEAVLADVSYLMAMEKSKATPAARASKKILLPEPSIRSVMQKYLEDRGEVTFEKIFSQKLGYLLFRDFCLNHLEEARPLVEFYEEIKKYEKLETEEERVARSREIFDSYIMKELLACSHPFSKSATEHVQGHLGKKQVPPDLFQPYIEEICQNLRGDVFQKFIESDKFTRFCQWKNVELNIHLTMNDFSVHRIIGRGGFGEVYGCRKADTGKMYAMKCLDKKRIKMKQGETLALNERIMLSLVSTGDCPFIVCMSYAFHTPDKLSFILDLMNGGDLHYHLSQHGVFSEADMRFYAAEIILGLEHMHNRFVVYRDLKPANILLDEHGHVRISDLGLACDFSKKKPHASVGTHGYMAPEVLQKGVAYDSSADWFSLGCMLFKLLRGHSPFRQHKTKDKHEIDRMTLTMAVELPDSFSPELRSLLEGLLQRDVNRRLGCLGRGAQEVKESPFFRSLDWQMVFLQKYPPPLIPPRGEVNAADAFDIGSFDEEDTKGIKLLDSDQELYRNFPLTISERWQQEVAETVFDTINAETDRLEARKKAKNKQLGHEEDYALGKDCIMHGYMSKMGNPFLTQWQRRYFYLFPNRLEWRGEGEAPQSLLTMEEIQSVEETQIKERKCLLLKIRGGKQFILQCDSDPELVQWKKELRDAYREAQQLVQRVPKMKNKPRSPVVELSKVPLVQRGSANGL

[3] = molecular target: LIM domain kinase 2 (Homo sapiens) (UniProt P53671); test: Selectivity interaction (Kinase panel (Invitrogen)) EUB0000639a LIMK2; conditions: at 200 nM
[4] = molecular target: Serine/threonine-protein kinase pim-3 (Homo sapiens) (UniProt Q86V86); test: Selectivity interaction (Kinase panel (DSF assay)) EUB0001489b PIM3
[5] = molecular target: Cyclin-dependent kinase 5 (Homo sapiens, UniProt Q00535); test: Selectivity interaction (Ambit KINOMEscan and KiNATiv profiling in Jurkat cells) EUB0000090b CDK5; assay type: cell-based; conditions: at 1 µM
[6] = molecular target: Cyclin-dependent kinase-like 3 (Homo sapiens) (UniProt Q8IVW4); conditions: at 10 µM
[7] = molecular target: Mitogen-activated protein kinase kinase kinase kinase 4 (Homo sapiens, UniProt O95819); test: Selectivity interaction (KinomeScan (DiscoverX)) EUB0001619a MAP4K4; conditions: at 1 µM
[8] = molecular target: T2, Serine/threonine-protein kinase TAO1 (Homo sapiens) (UniProt Q7L7X3); test: Selectivity interaction (KinomeScan (DiscoverX)) EUB0001619a TAOK1; conditions: at 1 µM
T2 sequence (whole entry): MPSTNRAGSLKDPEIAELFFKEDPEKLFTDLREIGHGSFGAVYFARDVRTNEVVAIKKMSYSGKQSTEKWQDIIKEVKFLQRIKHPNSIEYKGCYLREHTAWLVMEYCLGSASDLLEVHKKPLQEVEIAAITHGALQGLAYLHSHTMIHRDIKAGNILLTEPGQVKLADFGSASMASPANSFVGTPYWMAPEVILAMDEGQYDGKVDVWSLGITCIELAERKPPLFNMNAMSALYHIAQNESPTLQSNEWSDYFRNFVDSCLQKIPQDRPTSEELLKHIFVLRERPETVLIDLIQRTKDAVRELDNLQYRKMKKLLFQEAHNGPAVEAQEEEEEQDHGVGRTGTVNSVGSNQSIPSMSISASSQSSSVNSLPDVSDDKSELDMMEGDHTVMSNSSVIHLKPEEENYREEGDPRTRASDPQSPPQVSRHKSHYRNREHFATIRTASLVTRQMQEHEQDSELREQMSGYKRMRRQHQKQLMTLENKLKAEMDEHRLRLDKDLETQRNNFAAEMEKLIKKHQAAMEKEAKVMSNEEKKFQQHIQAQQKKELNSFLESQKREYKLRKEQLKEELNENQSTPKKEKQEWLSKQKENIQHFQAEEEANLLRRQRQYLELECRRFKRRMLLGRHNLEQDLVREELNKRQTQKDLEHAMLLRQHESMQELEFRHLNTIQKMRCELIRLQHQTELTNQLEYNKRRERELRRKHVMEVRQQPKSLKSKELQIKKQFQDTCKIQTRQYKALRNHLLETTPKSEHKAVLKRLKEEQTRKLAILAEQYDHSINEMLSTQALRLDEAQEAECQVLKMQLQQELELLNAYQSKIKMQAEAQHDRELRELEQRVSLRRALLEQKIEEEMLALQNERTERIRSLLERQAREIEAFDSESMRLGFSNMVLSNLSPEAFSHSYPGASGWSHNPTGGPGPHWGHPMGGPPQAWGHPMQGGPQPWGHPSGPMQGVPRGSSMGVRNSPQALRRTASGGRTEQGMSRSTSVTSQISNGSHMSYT

[9] = molecular target: T3, Mitogen-activated protein kinase 15 (Homo sapiens) (UniProt Q8TD08); test: Selectivity interaction (KinomeScan (DiscoverX)) EUB0000607a MAPK15; conditions: at 10 µM
T3 sequence (whole entry): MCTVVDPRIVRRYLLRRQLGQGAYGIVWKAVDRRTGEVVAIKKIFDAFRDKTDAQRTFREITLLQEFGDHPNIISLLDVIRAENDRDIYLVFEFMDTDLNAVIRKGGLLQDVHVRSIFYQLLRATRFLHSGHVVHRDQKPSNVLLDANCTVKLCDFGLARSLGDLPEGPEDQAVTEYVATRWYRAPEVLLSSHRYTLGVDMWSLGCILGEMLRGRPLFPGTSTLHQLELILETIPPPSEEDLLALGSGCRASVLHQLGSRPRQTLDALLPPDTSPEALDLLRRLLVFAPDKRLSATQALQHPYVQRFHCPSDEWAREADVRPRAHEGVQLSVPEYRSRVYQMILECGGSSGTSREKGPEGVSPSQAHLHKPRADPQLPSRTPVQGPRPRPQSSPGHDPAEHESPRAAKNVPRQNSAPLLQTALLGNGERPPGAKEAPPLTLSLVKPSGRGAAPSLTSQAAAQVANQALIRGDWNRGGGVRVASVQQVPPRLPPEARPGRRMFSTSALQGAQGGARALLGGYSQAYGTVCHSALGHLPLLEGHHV

[10] = molecular target: Serine/threonine-protein kinase PAK 4 (Homo sapiens, UniProt O96013); test: Selectivity interaction (Kinase panel (Z-LYTE Assay)) EUB0001632a PAK4; conditions: at 10 µM
EML4-ALK (Homo sapiens) = EML4-ALK (Homo sapiens) (UniProt Q9UM73+Q9HC35); test: Selectivity interaction (ProQinase) EUB0000171b ALK; assay type: protein assay; conditions: at 1 µM
Sequence of EML4-ALK (Homo sapiens) (Q9HC35 whole entry partner): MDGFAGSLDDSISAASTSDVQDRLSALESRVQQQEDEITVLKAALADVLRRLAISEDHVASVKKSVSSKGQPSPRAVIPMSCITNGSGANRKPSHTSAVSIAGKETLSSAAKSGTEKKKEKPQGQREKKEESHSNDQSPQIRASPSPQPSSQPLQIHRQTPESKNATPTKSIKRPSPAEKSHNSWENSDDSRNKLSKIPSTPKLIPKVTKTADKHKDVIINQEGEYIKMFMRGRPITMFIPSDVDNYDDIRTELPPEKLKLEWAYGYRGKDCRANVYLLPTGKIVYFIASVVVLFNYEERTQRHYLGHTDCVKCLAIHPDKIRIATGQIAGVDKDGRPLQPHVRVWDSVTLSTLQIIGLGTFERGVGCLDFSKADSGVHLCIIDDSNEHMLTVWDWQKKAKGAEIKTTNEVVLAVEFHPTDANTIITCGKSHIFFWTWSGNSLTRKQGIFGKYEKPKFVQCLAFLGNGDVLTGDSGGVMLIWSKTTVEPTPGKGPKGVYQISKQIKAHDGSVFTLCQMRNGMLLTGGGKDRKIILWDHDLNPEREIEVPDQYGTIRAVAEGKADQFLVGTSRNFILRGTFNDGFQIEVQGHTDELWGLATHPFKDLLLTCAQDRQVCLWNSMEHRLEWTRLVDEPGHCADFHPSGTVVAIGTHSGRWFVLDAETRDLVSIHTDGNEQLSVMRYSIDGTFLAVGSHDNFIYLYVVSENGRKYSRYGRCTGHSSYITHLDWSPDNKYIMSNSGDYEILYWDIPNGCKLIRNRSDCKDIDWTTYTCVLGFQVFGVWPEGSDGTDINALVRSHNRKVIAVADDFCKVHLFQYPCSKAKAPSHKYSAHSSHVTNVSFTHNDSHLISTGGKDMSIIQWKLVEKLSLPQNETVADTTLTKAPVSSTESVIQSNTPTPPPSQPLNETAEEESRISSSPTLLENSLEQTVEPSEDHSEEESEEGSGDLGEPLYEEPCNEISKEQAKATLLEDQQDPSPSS
Sequence of EML4-ALK (Homo sapiens) (Q9UM73 19-1620 limits assumed): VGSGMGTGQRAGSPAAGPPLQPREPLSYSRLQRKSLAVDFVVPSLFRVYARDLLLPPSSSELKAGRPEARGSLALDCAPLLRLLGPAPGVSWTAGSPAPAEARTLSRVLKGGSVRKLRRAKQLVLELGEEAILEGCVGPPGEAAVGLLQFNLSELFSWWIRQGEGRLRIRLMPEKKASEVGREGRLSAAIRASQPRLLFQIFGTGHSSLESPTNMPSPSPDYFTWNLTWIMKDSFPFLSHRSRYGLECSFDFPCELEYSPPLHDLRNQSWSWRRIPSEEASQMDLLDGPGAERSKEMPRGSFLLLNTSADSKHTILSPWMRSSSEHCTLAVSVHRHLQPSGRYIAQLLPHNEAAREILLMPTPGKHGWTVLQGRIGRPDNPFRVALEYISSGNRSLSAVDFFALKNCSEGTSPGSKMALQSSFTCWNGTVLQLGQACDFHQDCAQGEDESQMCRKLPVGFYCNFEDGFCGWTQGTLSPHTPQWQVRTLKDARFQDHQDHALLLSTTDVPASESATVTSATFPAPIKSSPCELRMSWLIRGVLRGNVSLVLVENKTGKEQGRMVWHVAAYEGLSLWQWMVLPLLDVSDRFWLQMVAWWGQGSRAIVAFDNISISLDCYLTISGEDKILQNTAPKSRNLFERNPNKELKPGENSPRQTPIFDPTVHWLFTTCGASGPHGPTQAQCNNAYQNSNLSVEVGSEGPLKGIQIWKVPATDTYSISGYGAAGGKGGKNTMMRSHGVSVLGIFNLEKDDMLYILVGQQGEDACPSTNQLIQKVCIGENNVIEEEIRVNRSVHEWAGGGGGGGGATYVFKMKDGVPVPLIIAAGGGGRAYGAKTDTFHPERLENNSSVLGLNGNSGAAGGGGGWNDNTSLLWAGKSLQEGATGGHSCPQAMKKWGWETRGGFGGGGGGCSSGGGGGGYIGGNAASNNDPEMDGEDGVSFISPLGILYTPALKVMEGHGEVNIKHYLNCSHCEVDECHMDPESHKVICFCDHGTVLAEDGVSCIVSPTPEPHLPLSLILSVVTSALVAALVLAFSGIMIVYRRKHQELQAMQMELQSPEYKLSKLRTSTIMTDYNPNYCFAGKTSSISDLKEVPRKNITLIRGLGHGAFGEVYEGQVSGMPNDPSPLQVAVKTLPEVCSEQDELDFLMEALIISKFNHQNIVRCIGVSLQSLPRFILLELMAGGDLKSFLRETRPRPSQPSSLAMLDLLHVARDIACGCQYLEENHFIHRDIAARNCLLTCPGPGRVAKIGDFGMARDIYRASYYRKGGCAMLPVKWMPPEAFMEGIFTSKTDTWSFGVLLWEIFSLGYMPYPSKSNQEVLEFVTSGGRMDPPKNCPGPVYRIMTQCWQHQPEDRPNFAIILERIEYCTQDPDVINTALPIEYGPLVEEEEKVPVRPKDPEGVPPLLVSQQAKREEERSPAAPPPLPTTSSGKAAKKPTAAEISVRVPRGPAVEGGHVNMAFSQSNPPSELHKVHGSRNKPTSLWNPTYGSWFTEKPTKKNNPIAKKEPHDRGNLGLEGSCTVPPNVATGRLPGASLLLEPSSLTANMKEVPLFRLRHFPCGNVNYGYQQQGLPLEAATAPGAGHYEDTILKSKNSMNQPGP

Sequence of Serine/threonine-protein kinase PAK 4 (O96013 whole entry, looked up): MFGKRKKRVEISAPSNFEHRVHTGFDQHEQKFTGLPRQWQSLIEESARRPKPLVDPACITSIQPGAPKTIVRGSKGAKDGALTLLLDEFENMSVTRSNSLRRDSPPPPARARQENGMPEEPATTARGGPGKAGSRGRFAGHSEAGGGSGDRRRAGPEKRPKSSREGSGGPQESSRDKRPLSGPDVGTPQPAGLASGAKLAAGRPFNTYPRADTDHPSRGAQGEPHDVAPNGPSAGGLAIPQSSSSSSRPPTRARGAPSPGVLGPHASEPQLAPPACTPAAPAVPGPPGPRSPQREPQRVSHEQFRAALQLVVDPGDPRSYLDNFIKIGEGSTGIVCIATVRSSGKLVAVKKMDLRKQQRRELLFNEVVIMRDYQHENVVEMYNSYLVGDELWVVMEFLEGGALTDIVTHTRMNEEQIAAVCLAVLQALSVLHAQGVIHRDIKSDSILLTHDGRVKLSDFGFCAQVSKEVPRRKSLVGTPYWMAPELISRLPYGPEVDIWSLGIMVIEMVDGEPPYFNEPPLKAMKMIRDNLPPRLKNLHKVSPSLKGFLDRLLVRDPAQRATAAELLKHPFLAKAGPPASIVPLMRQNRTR
Sequence of LIM domain kinase 2 (Homo sapiens) (P53671 whole entry, looked up, the tested form may be a part): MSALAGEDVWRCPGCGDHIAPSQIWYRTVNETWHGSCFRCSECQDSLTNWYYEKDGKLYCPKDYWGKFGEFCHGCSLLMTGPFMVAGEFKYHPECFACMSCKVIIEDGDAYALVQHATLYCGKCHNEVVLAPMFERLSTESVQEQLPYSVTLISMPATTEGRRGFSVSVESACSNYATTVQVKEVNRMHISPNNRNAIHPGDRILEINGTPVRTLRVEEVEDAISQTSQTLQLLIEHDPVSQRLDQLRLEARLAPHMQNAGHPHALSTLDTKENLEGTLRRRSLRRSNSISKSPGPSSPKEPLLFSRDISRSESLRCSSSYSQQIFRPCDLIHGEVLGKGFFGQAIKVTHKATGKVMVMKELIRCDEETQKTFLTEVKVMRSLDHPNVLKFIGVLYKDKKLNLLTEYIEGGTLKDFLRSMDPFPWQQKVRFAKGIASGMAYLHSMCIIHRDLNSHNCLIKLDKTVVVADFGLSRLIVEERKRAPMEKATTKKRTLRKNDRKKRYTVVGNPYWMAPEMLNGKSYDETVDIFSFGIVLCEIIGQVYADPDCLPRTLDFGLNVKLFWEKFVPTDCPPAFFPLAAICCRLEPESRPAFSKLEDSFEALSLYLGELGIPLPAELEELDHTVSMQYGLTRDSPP
Sequence of Cyclin-dependent kinase-like 3 (Homo sapiens) (Q8IVW4 whole entry, looked up): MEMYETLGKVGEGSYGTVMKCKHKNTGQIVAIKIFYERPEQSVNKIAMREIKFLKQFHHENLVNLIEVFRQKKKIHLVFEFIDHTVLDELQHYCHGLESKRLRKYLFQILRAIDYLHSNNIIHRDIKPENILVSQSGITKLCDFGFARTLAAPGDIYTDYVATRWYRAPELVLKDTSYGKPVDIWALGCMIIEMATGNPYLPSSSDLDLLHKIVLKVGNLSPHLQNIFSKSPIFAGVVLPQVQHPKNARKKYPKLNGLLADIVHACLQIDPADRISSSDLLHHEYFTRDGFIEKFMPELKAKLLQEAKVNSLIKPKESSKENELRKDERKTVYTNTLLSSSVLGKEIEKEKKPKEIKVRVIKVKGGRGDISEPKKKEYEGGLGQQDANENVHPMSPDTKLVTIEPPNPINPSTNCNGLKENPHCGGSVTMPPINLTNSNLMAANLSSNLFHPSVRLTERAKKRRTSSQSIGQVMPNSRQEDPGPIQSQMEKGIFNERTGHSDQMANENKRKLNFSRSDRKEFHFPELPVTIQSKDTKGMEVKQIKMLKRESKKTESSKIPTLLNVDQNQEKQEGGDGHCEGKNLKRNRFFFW
Sequence of Cyclin-dependent kinase 5 (Q00535 whole entry, looked up): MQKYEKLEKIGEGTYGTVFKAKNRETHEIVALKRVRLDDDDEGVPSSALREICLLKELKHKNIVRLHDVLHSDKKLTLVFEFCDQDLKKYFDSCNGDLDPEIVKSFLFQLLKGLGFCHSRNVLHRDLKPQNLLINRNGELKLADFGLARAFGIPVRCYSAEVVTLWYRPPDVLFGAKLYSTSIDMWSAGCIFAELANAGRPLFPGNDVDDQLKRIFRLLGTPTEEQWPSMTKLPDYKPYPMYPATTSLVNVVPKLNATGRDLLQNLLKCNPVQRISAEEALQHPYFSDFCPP

Which % of control [1] does the source give for CC(=O)Nc1cccc(-n2c(=O)n(C3CC3)c(=O)c3c(Nc4ccc(I)cc4F)n(C)c(=O)c(C)c32)c1 here?
Its % of control is 150%.

Which % of inhibition [2] does the source give for CC[C@@H]1[C@H](F)C(=O)N[C@@H]1COc1nccc2cc(C(N)=O)c(OC)cc12 [ZIMLOVISERTIB] here?
Its % of inhibition is 0.284%.

And the % of inhibition [3]?
Its % of inhibition is 1.7%.

Which dTM [4] does the source give for CN1CCN(C(=O)c2ccc3cc2OCCOCCNc2ccn4ncc-3c4n2)CC1 here?
Its dTM is 2.1 K.

How did the % of control [5] turn out when CN(C)C/C=C/C(=O)Nc1ccc(C(=O)N2CCCC(Nc3ncc(Cl)c(-c4c[nH]c5ccccc45)n3)C2)cc1 (stereo unspecified) was run?
Its % of control is 89%.

How did the % of control [6] turn out when Cc1cc([C@@H](C)Nc2ccccc2C(=O)O)c2nc(N3CCOCC3)cc(=O)n2c1 [AZD-6482] was run?
The % of control was 90%.

Which % of control [7] does the source give for N#Cc1cccc(-c2c[nH]c3ncnc(N4CCOCC4)c23)c1 here?
The % of control was 71%.

And the % of control [8]?
Its % of control is 6.4%.

How did the % of control [9] turn out when CNC(=O)Nc1ccc(-c2nc(N3CC4CCC(C3)O4)c3cnn(C4CCC5(CC4)OCCO5)c3n2)cc1 was run?
Its % of control is 25%.

How did the % of control [10] turn out when Cn1cc(-n2cnc3c(NCc4nc5cc(Cl)c(Cl)cc5[nH]4)nc(N4CCOCC4)nc32)cn1 was run?
The % of control was 7.15%.

How did the % of control (EML4-ALK (Homo sapiens)) turn out when C=CC(=O)Nc1cccc(C(=O)Nc2ccc(Nc3cc(-c4[nH]c(SC)nc4C)ccn3)cc2)c1 was run?
The % of control was 93%.
